Measurements taken from a melting point compilation (Tetko et al.; mined from patent text by program, amines drawn as free bases though some values may be those of a salt).
Non-standard residues stand in square brackets, D forms with d. Residues, ends and D or L forms follow the SMILES beside them. *: point of attachment. 1Nal = N[C@@H](Cc1cccc2ccccc12)C(=O)O; Cbz = O=C(OCc1ccccc1)*

With `CC(C)(C)OC(=O)N[C@@H]1CCc2ccc(OS(=O)(=O)C(F)(F)F)cc2C1` the melting point was 52 to 55 °C.
`CCCc1nc(C(C)(C)O)c(C(=O)OC(C)OC(=O)OC(C)C)n1Cc1ccc(-c2ccccc2C(=O)O)cc1` (configuration not stated) gave a melting point of 94 to 96 °C.
In the case of `O=C(O)c1c(C(F)(F)F)nc2c(C(F)(F)F)cccc2c1O`, the melting point is reported as 188 °C.
`CC(C)(CC(O)(C(=O)O)C(F)(F)F)c1ccc(C(N)=O)cc1` (configuration not stated) gave a melting point of 244 to 245 °C.
`CCOC(=O)C1=C(N)C(OCC)=NS1=O` (configuration not stated) showed a melting point of 154 to 155 °C.
`CCOC(=O)c1nnc2ccc(NS(C)(=O)=O)cc2c1O` showed a melting point of 274 to 275 °C.
In the case of `COc1ccc(C(=O)Nc2ccc3ccc(OCCN(C)C)nc3n2)cc1`, the melting point is reported as 77 to 80 °C.
In the case of `CC(C)c1cc(C(C)C)c(NC(=O)CN2CCN(CCSc3nc4ccccc4o3)CC2)c(C(C)C)c1`, the melting point is reported as 160 to 163 °C.
Compound `COc1ccc(Nc2nc(C)ncc2S(=O)(=O)c2ccc(OCc3ccccc3)cc2)c(C)c1` has a melting point of 110 to 114 °C.
Work on `CC(C)C[C@@H](C=O)NC(=O)[C@H](Cc1c[nH]cn1)NC(=O)[C@H](Cc1cccc2ccccc12)NC(=O)OCc1ccccc1` (Cbz-[1Nal]-His-Leu-aldehyde) yielded a melting point of 106 to 108 °C.
For `NC(=O)N(O)C1CCC(c2ccccc2)CC1` (configuration not stated), the melting point was 161 to 162 °C.
For `CSCCCn1c(C)c(C(=O)c2cccc(Cl)c2Cl)c2cccc(Cl)c21`, the melting point was 87 °C.
Compound `COc1ccc(CSc2nnc(-c3ccc4[nH]ncc4c3)o2)cc1C(F)(F)F` has a melting point of 136 to 137 °C.
`CCOC1=NC(N)=C(C(=O)OC)C(c2cccc([N+](=O)[O-])c2)C1C(=O)OC` (configuration not stated) showed a melting point of 163 °C.
For `C=C(c1ccccc1OC)c1ccccc1OC`, the melting point was 88 to 90 °C.
In the case of `O=C(O)c1ccc(C(F)(F)F)cc1SC1CCCCC1`, the melting point is reported as 115 to 116 °C.
In the case of `COc1ccc(C(=O)C(C(=O)Nc2cc(N)ccc2Cl)N2C(=O)c3ccccc3C2=O)cc1` (configuration not stated), the melting point is reported as 105 to 107 °C.
In the case of `CCCCCCNC1=NS(=O)(=O)c2cc(Cl)c(Cl)cc2N1`, the melting point is reported as 282 to 286 °C.
`COc1cc(OC)nc(-n2nc(C)n(N)c2=O)n1` showed a melting point of 219 °C.
With `CC(C)CN(Cc1csc(C(C)C)n1)C(=O)N[C@H](C(=O)N[C@@H](Cc1ccccc1)C[C@H](O)[C@H](Cc1ccccc1)NC(=O)OCc1cncs1)C(C)C` the melting point was 60 to 61 °C.
Work on `CCn1c(=O)c2c(O)cc(=O)oc2c2ccc(Cl)cc21` yielded a melting point of 276 to 278 °C.
`COC(=O)C1(C)CC(C(=O)Nc2ccc(I)cc2)=NN1c1ccc(F)cc1` (configuration not stated) gave a melting point of 84 to 85 °C.
Compound `CCOC(=O)C1=C(COCCn2c(C)nnc2-c2ccccc2)NC(C)=C(C(=O)Nc2ccccn2)C1c1ccccc1Cl` (configuration not stated) has a melting point of 167 to 169 °C.
`CC1(C)C(=O)N(Cl)C(C)(C)C(=O)N1Cl` showed a melting point of 176 to 178 °C.
`CCOC(=O)c1cn(C2CC2)c2nc(N3CCCC(n4ccnn4)C3)c(F)cc2c1=O` (configuration not stated) gave a melting point of 205 to 206 °C.
Work on `CCc1c(-c2ccc(O)cc2)c2cc(C(C)=O)c3ccc(O)c1n32` yielded a melting point of 167 to 173 °C.
With `CN(c1cc(OC(F)(F)F)cc2cc(C3=NCC(CN4CCOCC4)S3)[nH]c12)S(=O)(=O)c1cccs1` (configuration not stated) the melting point was 165 to 166 °C.
With `Cc1cc(Oc2ccc3nc(COc4ccc(CC5SC(=O)NC5=O)cc4)n(C)c3c2)cc(C)c1NC(=S)Nc1ccc(Cl)cc1` (configuration not stated) the melting point was 160 to 162 °C.
Work on `Cc1ccc2c(c1)C(=O)N(CC(=O)N1c3ccccc3N(Cc3ccccc3)C(=O)[C@H]3CCC[C@H]31)C2=O` (relative stereo) yielded a melting point of 237 to 238 °C.
`O=C1CCC(c2nc(-c3ccccc3)c(-c3ccccc3)o2)N1` (configuration not stated) showed a melting point of 145 to 147 °C.
In the case of `CCOC(=O)c1sc(-n2ccc(O)cc2=O)nc1C`, the melting point is reported as 270 to 273 °C.
For `COc1cc2c(c(OC)c1)C1CCC3(C)C(=O)CCC3C1CC2` (configuration not stated), the melting point was 132 to 133 °C.
`CCc1cc2nc(N)c(-c3ccccc3)cc2c(CC)n1` gave a melting point of 110 to 112 °C.
Compound `COC(=O)c1ccc(C(=O)Nc2ccc(-n3nc(C(F)(F)F)cc3C(F)(F)F)cc2)cc1` has a melting point of 195 to 196 °C.
With `O=C(CCCOc1ccc2nc3[nH]c(=O)[nH]c3cc2c1)NC1CCCCC1` the melting point was greater than 320 °C.
Compound `CCc1cccc(C)c1CNc1cc(Br)cc2c1ncn2C` has a melting point of 132 to 134 °C.
In the case of `Brc1csc2ncnc(NCc3ccccn3)c12`, the melting point is reported as 127 to 129 °C.
In the case of `O=C(c1ccc(Cl)cc1)c1c(Cl)cc2n1CCC2C(=O)O` (configuration not stated), the melting point is reported as 197 °C.
Work on `Cc1ccc(-n2nc(C(C)(C)C)cc2NC(=O)Nc2ccc(OCCN3CCOCC3)c3ccccc23)cc1` yielded a melting point of 142 to 143 °C.
With `CN1CCC(=C2c3ccccc3Sc3ccc(C(=O)O)cc32)CC1` the melting point was 319 to 323 °C.
Work on `CC(C)(C)c1ccc(-c2nn3c(=O)c([N+](=O)[O-])c(Cl)nc3s2)cc1` yielded a melting point of 245 to 248 °C.
Compound `Fc1ccc([C@@H]2CCN(Cc3ccccc3)C[C@H]2COc2ccc3c(c2)OCO3)cc1` has a melting point of 98 to 100 °C.
`CCCCCCCNC(=O)Nc1ccc(OC)cc1NC(=O)c1cc(C(C)(C)C)c(O)c(C(C)(C)C)c1` showed a melting point of 150 to 151 °C.
For `COc1ccc(-c2cnc3cc4cn[nH]c4cc3n2)cc1F`, the melting point was 175 to 179 °C.
Work on `O=C(O)C1CCCN(CCC#Cc2ccccc2)C1` (configuration not stated) yielded a melting point of 150 to 151 °C.
For `O=C(O)[C@@H](CCN1C(=O)c2ccccc2C1=O)Oc1c(Br)cc(-c2c3ccccc3c(Br)c3sc4ccccc4c23)cc1Br`, the melting point was 215 to 217 °C.
For `COc1ccc2c(c1OC)CN(Cc1ccccc1)CCc1cc3c(cc1CC2)OCO3`, the melting point was 75 to 78 °C.
